# Test results: ChEMBL document CHEMBL3885881, “DrugMatrix”
# Species: Rattus norvegicus
# Experiment: DrugMatrix - Regimen: Daily Repeat
# Assay type: toxicity, organism-based, Sprague-Dawley
# Design: regimen Daily Repeat, gender Male, age 6-8 weeks
# Settings: in vivo, po, route oral GAVAGE, vehicle .5 % CMC; for ABSOLUTE BASOPHIL / ABSOLUTE EOSINOPHIL / ABSOLUTE LYMPHOCYTE / ABSOLUTE MONOCYTE / ABSOLUTE SEGMENTED NEUTROPHIL / BASOPHIL / EOSINOPHIL / ERYTHROCYTE COUNT / HEMATOCRIT / HEMOGLOBIN / LEUKOCYTE COUNT / LYMPHOCYTE / MEAN CORPUSCULAR HEMOGLOBIN / MEAN CORPUSCULAR HEMOGLOBIN CONCENTRATION / MEAN CORPUSCULAR VOLUME / MONOCYTE / NEUTROPHIL / NUCLEATED RED BLOOD CELLS / PLATELET COUNT: tissue Blood; for ALANINE AMINOTRANSFERASE / ALBUMIN / ALKALINE PHOSPHATASE / ASPARTATE AMINOTRANSFERASE / BLOOD UREA NITROGEN / CARBON DIOXIDE / CHLORIDE / CHOLESTEROL / CREATINE PHOSPHOKINASE / CREATININE / GLUCOSE / LACTATE DEHYDROGENASE / LIPASE / PHOSPHORUS / POTASSIUM / SODIUM / TOTAL BILIRUBIN / TOTAL PROTEIN / URIC ACID: tissue Plasma
# [1] = 80 mg/kg, 72 h, dose level Low, time 3 day
# [2] = 80 mg/kg, 120 h, dose level Low, time 5 day
# [3] = 1500 mg/kg, 72 h, dose level High, time 3 day
# [4] = 1500 mg/kg, 120 h, dose level High, time 5 day
smiles,measurement,setting,value
Cc1cc(=O)n(-c2ccccc2)n1C [ANTIPYRINE],ABSOLUTE BASOPHIL,[1],0 CELLS/uL
same,ABSOLUTE EOSINOPHIL,[1],91.33 CELLS/uL
same,ABSOLUTE LYMPHOCYTE,[1],12252 CELLS/uL
same,ABSOLUTE MONOCYTE,[1],196 CELLS/uL
same,ABSOLUTE SEGMENTED NEUTROPHIL,[1],1827.33 CELLS/uL
same,BASOPHIL,[1],0%
same,EOSINOPHIL,[1],0.67%
same,ERYTHROCYTE COUNT,[1],5.35 x10E6/uL
same,HEMATOCRIT,[1],34.23%
same,HEMOGLOBIN,[1],13.5 G/DL
same,LEUKOCYTE COUNT,[1],14.37 x10E3/uL
same,LYMPHOCYTE,[1],86%
same,MEAN CORPUSCULAR HEMOGLOBIN,[1],25.27 pg
same,MEAN CORPUSCULAR HEMOGLOBIN CONCENTRATION,[1],39.43 G/DL
same,MEAN CORPUSCULAR VOLUME,[1],64 fL
same,MONOCYTE,[1],1.33%
same,NEUTROPHIL,[1],12%
same,NUCLEATED RED BLOOD CELLS,[1],0.33 /100WBC
same,PLATELET COUNT,[1],1283.67 x10E3/uL
same,ALANINE AMINOTRANSFERASE,[1],47.67 u/L
same,ALBUMIN,[1],4.47 G/DL
same,ALKALINE PHOSPHATASE,[1],419 u/L
same,ASPARTATE AMINOTRANSFERASE,[1],82 u/L
same,BLOOD UREA NITROGEN,[1],18 mg/dL
same,CARBON DIOXIDE,[1],23.33 mmol/L
same,CHLORIDE,[1],103.67 MEQ/L
same,CHOLESTEROL,[1],77 mg/dL
same,CREATINE PHOSPHOKINASE,[1],225 u/L
same,CREATININE,[1],0.22 mg/dL
same,GLUCOSE,[1],163 mg/dL
same,LACTATE DEHYDROGENASE,[1],184 u/L
same,LIPASE,[1],9.67 u/L
same,PHOSPHORUS,[1],13.9 mg/dL
same,POTASSIUM,[1],7.07 MEQ/L
same,SODIUM,[1],147.1 MEQ/L
same,TOTAL BILIRUBIN,[1],0.27 mg/dL
same,TOTAL PROTEIN,[1],6.23 G/DL
same,URIC ACID,[1],1.77 mg/dL
same,ABSOLUTE BASOPHIL,[2],0 CELLS/uL
same,ABSOLUTE EOSINOPHIL,[2],104 CELLS/uL
same,ABSOLUTE LYMPHOCYTE,[2],12025 CELLS/uL
same,ABSOLUTE MONOCYTE,[2],0 CELLS/uL
same,ABSOLUTE SEGMENTED NEUTROPHIL,[2],871 CELLS/uL
same,BASOPHIL,[2],0%
same,EOSINOPHIL,[2],0.67%
same,ERYTHROCYTE COUNT,[2],5.47 x10E6/uL
same,HEMATOCRIT,[2],35.87%
same,HEMOGLOBIN,[2],13.93 G/DL
same,LEUKOCYTE COUNT,[2],13 x10E3/uL
same,LYMPHOCYTE,[2],92.33%
same,MEAN CORPUSCULAR HEMOGLOBIN,[2],25.53 pg
same,MEAN CORPUSCULAR HEMOGLOBIN CONCENTRATION,[2],38.9 G/DL
same,MEAN CORPUSCULAR VOLUME,[2],65.6 fL
same,MONOCYTE,[2],0%
same,NEUTROPHIL,[2],7%
same,NUCLEATED RED BLOOD CELLS,[2],0.33 /100WBC
same,PLATELET COUNT,[2],1274.33 x10E3/uL
same,ALANINE AMINOTRANSFERASE,[2],48 u/L
same,ALBUMIN,[2],4.27 G/DL
same,ALKALINE PHOSPHATASE,[2],367.33 u/L
same,ASPARTATE AMINOTRANSFERASE,[2],83 u/L
same,BLOOD UREA NITROGEN,[2],15.67 mg/dL
same,CARBON DIOXIDE,[2],26.33 mmol/L
same,CHLORIDE,[2],101 MEQ/L
same,CHOLESTEROL,[2],76.33 mg/dL
same,CREATINE PHOSPHOKINASE,[2],353 u/L
same,CREATININE,[2],0.16 mg/dL
same,GLUCOSE,[2],179.67 mg/dL
same,LACTATE DEHYDROGENASE,[2],147.67 u/L
same,LIPASE,[2],8.67 u/L
same,PHOSPHORUS,[2],12.13 mg/dL
same,POTASSIUM,[2],7.07 MEQ/L
same,SODIUM,[2],141.77 MEQ/L
same,TOTAL BILIRUBIN,[2],0.13 mg/dL
same,TOTAL PROTEIN,[2],5.97 G/DL
same,URIC ACID,[2],2.27 mg/dL
same,ABSOLUTE BASOPHIL,[3],0 CELLS/uL
same,ABSOLUTE EOSINOPHIL,[3],55 CELLS/uL
same,ABSOLUTE LYMPHOCYTE,[3],14551 CELLS/uL
same,ABSOLUTE MONOCYTE,[3],220 CELLS/uL
same,ABSOLUTE SEGMENTED NEUTROPHIL,[3],1207.33 CELLS/uL
same,BASOPHIL,[3],0%
same,EOSINOPHIL,[3],0.33%
same,ERYTHROCYTE COUNT,[3],5.53 x10E6/uL
same,HEMATOCRIT,[3],35.67%
same,HEMOGLOBIN,[3],14.13 G/DL
same,LEUKOCYTE COUNT,[3],16.03 x10E3/uL
same,LYMPHOCYTE,[3],90.67%
same,MEAN CORPUSCULAR HEMOGLOBIN,[3],25.6 pg
same,MEAN CORPUSCULAR HEMOGLOBIN CONCENTRATION,[3],39.63 G/DL
same,MEAN CORPUSCULAR VOLUME,[3],64.5 fL
same,MONOCYTE,[3],1.33%
same,NEUTROPHIL,[3],7.67%
same,NUCLEATED RED BLOOD CELLS,[3],0.33 /100WBC
same,PLATELET COUNT,[3],1257 x10E3/uL
same,ALANINE AMINOTRANSFERASE,[3],71 u/L
same,ALBUMIN,[3],4.27 G/DL
same,ALKALINE PHOSPHATASE,[3],404.67 u/L
same,ASPARTATE AMINOTRANSFERASE,[3],85 u/L
same,BLOOD UREA NITROGEN,[3],14 mg/dL
same,CARBON DIOXIDE,[3],37 mmol/L
same,CHLORIDE,[3],99.33 MEQ/L
same,CHOLESTEROL,[3],76 mg/dL
same,CREATINE PHOSPHOKINASE,[3],183.33 u/L
same,CREATININE,[3],0.17 mg/dL
same,GLUCOSE,[3],141.67 mg/dL
same,LACTATE DEHYDROGENASE,[3],103.33 u/L
same,LIPASE,[3],9.67 u/L
same,PHOSPHORUS,[3],10.07 mg/dL
same,POTASSIUM,[3],6.57 MEQ/L
same,SODIUM,[3],143.77 MEQ/L
same,TOTAL BILIRUBIN,[3],0.2 mg/dL
same,TOTAL PROTEIN,[3],5.83 G/DL
same,URIC ACID,[3],1.53 mg/dL
same,ABSOLUTE BASOPHIL,[4],0 CELLS/uL
same,ABSOLUTE EOSINOPHIL,[4],0 CELLS/uL
same,ABSOLUTE LYMPHOCYTE,[4],19193.67 CELLS/uL
same,ABSOLUTE MONOCYTE,[4],792.67 CELLS/uL
same,ABSOLUTE SEGMENTED NEUTROPHIL,[4],3680.33 CELLS/uL
same,BASOPHIL,[4],0%
same,EOSINOPHIL,[4],0%
same,ERYTHROCYTE COUNT,[4],5.35 x10E6/uL
same,HEMATOCRIT,[4],35.1%
same,HEMOGLOBIN,[4],14.13 G/DL
same,LEUKOCYTE COUNT,[4],23.67 x10E3/uL
same,LYMPHOCYTE,[4],81.33%
same,MEAN CORPUSCULAR HEMOGLOBIN,[4],26.43 pg
same,MEAN CORPUSCULAR HEMOGLOBIN CONCENTRATION,[4],40.27 G/DL
same,MEAN CORPUSCULAR VOLUME,[4],65.7 fL
same,MONOCYTE,[4],3.67%
same,NEUTROPHIL,[4],15%
same,NUCLEATED RED BLOOD CELLS,[4],0.33 /100WBC
same,PLATELET COUNT,[4],1282 x10E3/uL
same,ALANINE AMINOTRANSFERASE,[4],57.67 u/L
same,ALBUMIN,[4],4.27 G/DL
same,ALKALINE PHOSPHATASE,[4],338.33 u/L
same,ASPARTATE AMINOTRANSFERASE,[4],86 u/L
same,BLOOD UREA NITROGEN,[4],16.33 mg/dL
same,CARBON DIOXIDE,[4],36 mmol/L
same,CHLORIDE,[4],103 MEQ/L
same,CHOLESTEROL,[4],72.33 mg/dL
same,CREATINE PHOSPHOKINASE,[4],309 u/L
same,CREATININE,[4],0.24 mg/dL
same,GLUCOSE,[4],135 mg/dL
same,LACTATE DEHYDROGENASE,[4],379.67 u/L
same,LIPASE,[4],10 u/L
same,PHOSPHORUS,[4],10.8 mg/dL
same,POTASSIUM,[4],7.71 MEQ/L
same,SODIUM,[4],141.33 MEQ/L
same,TOTAL BILIRUBIN,[4],0.2 mg/dL
same,TOTAL PROTEIN,[4],5.9 G/DL
same,URIC ACID,[4],1.2 mg/dL
